# Laboratory results as given in the supplement of paper PMC8497498.
# Key:
# [1] = tested on: Plasmodium cynomolgi Berok K4 asexual blood stage; test: EC50 asexual blood stage growth
# Experimental: (§1)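 The Reference Compound Library was tested by 10-point 3-fold dose response against P. cynomolgi Berok K4 asexual blood stages (SYBR proliferation assay, mefloquine background control). Culture medium contained 0.5% AlbuMAX or 20% M. fascicularis serum. P. falciparum 3D7 was tested in a 72-h SYBR Green assay with 0.5% AlbuMAX. Values are geometric mean EC50 over independent experiments; 10 uM is the top dose.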
# [2] = tested on: Plasmodium falciparum 3D7 asexual blood stage; test: EC50 asexual blood stage growth; conditions: serum: 0.5% AlbuMAX
# Experimental: as §1
# [3] = tested on: Plasmodium vivax liver stage (primary human hepatocyte culture); conditions: hepatocyte lot: BGW
# Experimental: (§2)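 Dose-response of P. vivax liver stages in primary human hepatocytes, with 8 points (10 uM-[…], v1) or 12 points in duplicate (50 uM-280 pM, v2). Read-out is high-content imaging of schizont net growth area, hypnozoite quantity and hepatic nuclei. EC50 and CC20 (20% nuclei loss) were fitted in CDD Vault from the highest-quality independent experiment; toxic-dose bell-shaped points were masked. '>' marks the highest concentration with less than 50% activity, and ND means a non-sigmoidal curve.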
# [4] = tested on: primary human hepatocytes; test: CC20 hepatic nuclei (20% reduction); higher = less toxic; conditions: hepatocyte lot: BGW
# Experimental: as §2
# [5] = tested on: Plasmodium vivax liver stage (primary human hepatocyte culture); test: maximum inhibition of schizont net growth area; higher = more active; conditions: hepatocyte lot: BGW
# Experimental: as §2
# [6] = serum: 20% M. fascicularis serum
# [7] = P. vivax isolate: Pv923, assay mode: Radical Cure, 8-day (treatment from day 5 post-infection)
# [8] = P. vivax isolate: Pv914, assay mode: Prophylactic, 6-day
# [9] = P. vivax isolate: Pv922, assay mode: Radical Cure, 8-day (treatment from day 5 post-infection)
# [10] = P. vivax isolate: Pv728, assay mode: Radical Cure, 8-day (treatment from day 5 post-infection)
structure (smiles),measurement,setting,value
CC(C)(C)NCc1cc(Nc2ccnc3cc(Cl)ccc23)ccc1F,EC50 asexual blood stage growth,[1]; serum: 0.5% AlbuMAX,77.4 nM
same,EC50 asexual blood stage growth,[1]; [6],38.8 nM
same,EC50 asexual blood stage growth,[2],9.8 nM
CC(C)(C)NCc1cc(C(C)(C)C)cc(-c2ccc(Cl)cc2)c1O,EC50 asexual blood stage growth,[1]; serum: 0.5% AlbuMAX,2 nM
same,EC50 asexual blood stage growth,[1]; [6],6.8 nM
same,EC50 asexual blood stage growth,[2],14.1 nM
Cc1ncc(-c2ccnc(Nc3ccc(S(C)(=O)=O)cc3)n2)n1C(C)C,EC50 hypnozoite quantity,[3]; [7],> 50 µM
same,EC50 schizont net growth area,[3]; [7],> 50000 nM
same,CC20 hepatic nuclei,[4]; [7],1.82 µM
same,maximum inhibition,[5]; [7],69.4%
Cc1c(Oc2cnc(C(=O)N3CC(C)(O)C3)cn2)ccc2c1B(O)OC2,EC50 hypnozoite quantity,[3]; [8],> 1.11 µM
same,EC50 schizont net growth area,[3]; [8],1630 nM
same,CC20 hepatic nuclei,[4]; [8],> 10 µM
same,maximum inhibition,[5]; [8],99.7%
Cc1cc(Nc2ccc(C(F)(F)F)nc2)n2nc(C(C)(F)F)nc2n1,EC50 hypnozoite quantity,[3]; [8],> 10 µM
same,EC50 schizont net growth area,[3]; [8],325 nM
same,CC20 hepatic nuclei,[4]; [8],> 10 µM
same,maximum inhibition,[5]; [8],98.8%
CCc1cc(=O)n(C)c(SC(C)C(=O)Nc2ccc(F)cc2)n1 (stereo not drawn),EC50 hypnozoite quantity,[3]; [7],> 50 µM
same,EC50 schizont net growth area,[3]; [7],> 16700 nM
same,CC20 hepatic nuclei,[4]; [7],> 50 µM
same,maximum inhibition,[5]; [7],87.6%
CN(C)C(=S)NN=C1C(=O)Nc2ccccc21,EC50 schizont net growth area,[3]; [7],> 16700 nM
same,CC20 hepatic nuclei,[4]; [7],40.3 µM
same,maximum inhibition,[5]; [7],66.1%
COc1cccc(C=Cc2nc(=O)c3ccccc3o2)c1OC,EC50 hypnozoite quantity,[3]; [8],> 10 µM
same,CC20 hepatic nuclei,[4]; [8],> 10 µM
same,maximum inhibition,[5]; [8],62.6%
CS(=O)(=O)c1cccc(-c2cnc3[nH]cc(-c4ccc(CCC(=O)O)cc4)c3c2)c1,EC50 hypnozoite quantity,[3]; [7],> 50 µM
same,EC50 schizont net growth area,[3]; [7],418 nM
same,CC20 hepatic nuclei,[4]; [7],> 50 µM
same,maximum inhibition,[5]; [7],99.2%
Cc1sc2ncnc(Sc3nnc(N)s3)c2c1C,EC50 hypnozoite quantity,[3]; [9],> 50 µM
same,EC50 schizont net growth area,[3]; [9],> 5560 nM
same,CC20 hepatic nuclei,[4]; [9],> 16.7 µM
same,maximum inhibition,[5]; [9],86.8%
O=C(Nc1ccc(N2CCNCC2)cc1)c1ccn2ncc(-c3cccc(Cl)c3)c2n1,EC50 hypnozoite quantity,[3]; [7],> 50 µM
same,EC50 schizont net growth area,[3]; [7],> 50000 nM
same,CC20 hepatic nuclei,[4]; [7],> 1.85 µM
same,maximum inhibition,[5]; [7],45.8%
O=C(Nc1cc(C(F)(F)F)cc(C(F)(F)F)c1)Nc1ccc(Cl)c(Cl)c1,EC50 hypnozoite quantity,[3]; [9],> 50 µM
same,CC20 hepatic nuclei,[4]; [9],> 5.56 µM
same,maximum inhibition,[5]; [9],51.2%
CN(Cc1cnc2nc(N)nc(N)c2n1)c1ccc(C(=O)N[C@@H](CCC(=O)O)C(=O)O)cc1 (racemic) [Methotrexate (+/-)],EC50 hypnozoite quantity,[3]; [8],> 10 µM
same,EC50 schizont net growth area,[3]; [8],42.8 nM
same,CC20 hepatic nuclei,[4]; [8],> 10 µM
same,maximum inhibition,[5]; [8],99.1%
Cc1nn(C)c(NC(=O)Cn2c(C(C)C)nc3ccccc32)c1-c1ccc(Cl)cc1F [21A092],EC50 asexual blood stage growth,[1]; serum: 0.5% AlbuMAX,7 nM
same,EC50 asexual blood stage growth,[1]; [6],79.4 nM
same,EC50 asexual blood stage growth,[2],14.8 nM
Cc1c(Oc2cnc(C(=O)N3CC(C)(O)C3)cn2)ccc2c1B(O)OC2 [AN762],EC50 asexual blood stage growth,[1]; serum: 0.5% AlbuMAX,1750 nM
same,EC50 asexual blood stage growth,[1]; [6],2200 nM
same,EC50 asexual blood stage growth,[2],101 nM
Cc1c(CCO)sc[n+]1CCCCCCCCCCCC[n+]1csc(CCO)c1C [Albitiazolium],EC50 asexual blood stage growth,[1]; serum: 0.5% AlbuMAX,367 nM
same,EC50 asexual blood stage growth,[1]; [6],144 nM
same,EC50 asexual blood stage growth,[2],14.4 nM
"c1cc(C2CCC3(CC2)OOC2(O3)C3CC4CC(C3)CC2C4)ccc1OCCN1CCOCC1 (stereo not drawn) [Artefenomel, OZ439]",EC50 hypnozoite quantity,[3]; [10],> 50 µM
same,EC50 schizont net growth area,[3]; [10],6890 nM
same,CC20 hepatic nuclei,[4]; [10],> 16.7 µM
same,maximum inhibition,[5]; [10],80.3%
c1cc(C2CCC3(CC2)OOC2(O3)C3CC4CC(C3)CC2C4)ccc1OCCN1CCOCC1 (stereo not drawn) [Artefenomel],EC50 asexual blood stage growth,[1]; serum: 0.5% AlbuMAX,3.4 nM
same,EC50 asexual blood stage growth,[1]; [6],2.3 nM
same,EC50 asexual blood stage growth,[2],42.4 nM
